In ChEMBL document CHEMBL1201862, “PubChem BioAssay data set” (2004):
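A five-concentration, 48-hour dose response in 96-well plates underlies each endpoint, interpolated linearly between surrounding concentrations. GI50 marks 50% less growth.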 The source made the active and inactive calls. Rule as the data show it: active = GI50 up to about 1.1 µM and inactive = higher.

Tests used:
Assay in all cases: growth of human tumour cells (NCI), 48 h
786-0 = tested on: 786-0
ACHN = tested on: ACHN
COLO 205 = tested on: COLO 205
DU-145 = tested on: DU-145
EKVX = tested on: EKVX
HCC 2998 = tested on: HCC 2998
IGROV-1 = tested on: IGROV-1
KM12 = tested on: KM12
NCI/ADR-RES = tested on: NCI/ADR-RES
OVCAR-3 = tested on: OVCAR-3
OVCAR-4 = tested on: OVCAR-4
SF-295 = tested on: SF-295
SK-MEL-28 = tested on: SK-MEL-28
SW-620 = tested on: SW-620
T47D = tested on: T47D
TK-10 = tested on: TK-10
UO-31 = tested on: UO-31
A498 = tested on: A498
MDA-N = tested on: MDA-N

SMILES | GI50 (786-0) | GI50 (ACHN) | GI50 (COLO 205) | GI50 (DU-145) | GI50 (EKVX) | GI50 (HCC 2998) | GI50 (IGROV-1) | GI50 (KM12) | GI50 (NCI/ADR-RES) | GI50 (OVCAR-3) | GI50 (OVCAR-4) | GI50 (SF-295) | GI50 (SK-MEL-28) | GI50 (SW-620) | GI50 (T47D) | GI50 (TK-10) | GI50 (UO-31) | GI50 (A498) | GI50 (MDA-N)
Cc1c(C(=O)O)sc2nc[nH]c(=O)c12 | > 100 µM (inactive) | > 100 µM (inactive) | > 100 µM (inactive) | > 100 µM (inactive) | 53.8 µM (inactive) | > 100 µM (inactive) | 84.1 µM (inactive) | > 100 µM (inactive) | > 100 µM (inactive) | > 100 µM (inactive) | > 100 µM (inactive) | > 100 µM (inactive) | > 100 µM (inactive) | > 100 µM (inactive) | > 100 µM (inactive) | > 100 µM (inactive) | > 100 µM (inactive) | – | –
N#Cc1ccccc1NC(=O)/C(=N\Nc1ccc([N+](=O)[O-])cc1)C1C(=O)NC(=O)NC1=O | > 100 µM (inactive) | > 100 µM (inactive) | > 100 µM (inactive) | – | > 100 µM (inactive) | > 100 µM (inactive) | > 100 µM (inactive) | > 100 µM (inactive) | – | > 100 µM (inactive) | > 100 µM (inactive) | – | > 100 µM (inactive) | > 100 µM (inactive) | – | > 100 µM (inactive) | 62.8 µM (inactive) | > 100 µM (inactive) | –
C(CCCCc1nnc(N2CCCCC2)o1)CCCc1nnc(N2CCCCC2)o1 | > 100 µM (inactive) | > 100 µM (inactive) | > 100 µM (inactive) | > 100 µM (inactive) | > 100 µM (inactive) | > 100 µM (inactive) | > 100 µM (inactive) | > 100 µM (inactive) | > 100 µM (inactive) | > 100 µM (inactive) | > 100 µM (inactive) | > 100 µM (inactive) | > 100 µM (inactive) | > 100 µM (inactive) | – | > 100 µM (inactive) | > 100 µM (inactive) | > 100 µM (inactive) | –
CN1C(=O)C(C(=O)Nc2ccccn2)C2C[C@@]1(C)Oc1ccccc12 (stereo not given in full) | > 100 µM (inactive) | 0.861 µM (active) | > 100 µM (inactive) | > 100 µM (inactive) | 63.5 µM (inactive) | > 100 µM (inactive) | > 100 µM (inactive) | > 100 µM (inactive) | > 100 µM (inactive) | > 100 µM (inactive) | > 100 µM (inactive) | > 100 µM (inactive) | > 100 µM (inactive) | > 100 µM (inactive) | – | > 100 µM (inactive) | > 100 µM (inactive) | 11.1 µM (inactive) | > 100 µM (inactive)
CC(C)c1ccc(O)c(Cc2cc(C(C)C)cc(Cc3cc(C(C)C)ccc3O)c2O)c1 | 1.7 µM (inactive) | 3.56 µM (inactive) | 3.32 µM (inactive) | – | 2.65 µM (inactive) | 1.78 µM (inactive) | 2.46 µM (inactive) | 1.97 µM (inactive) | – | 1.65 µM (inactive) | 1.39 µM (inactive) | 1.88 µM (inactive) | 1.73 µM (inactive) | 1.72 µM (inactive) | – | 1.93 µM (inactive) | 1.68 µM (inactive) | 1.46 µM (inactive) | –
Cc1cc2c(cc1C)[n+]([O-])c(C(=O)CC(=O)C(=O)Nc1ccccc1C(C)C)c(C)[n+]2[O-] | > 100 µM (inactive) | > 100 µM (inactive) | > 100 µM (inactive) | – | > 100 µM (inactive) | > 100 µM (inactive) | > 100 µM (inactive) | > 100 µM (inactive) | – | > 100 µM (inactive) | > 100 µM (inactive) | > 100 µM (inactive) | > 100 µM (inactive) | > 100 µM (inactive) | – | 25.5 µM (inactive) | > 100 µM (inactive) | > 100 µM (inactive) | –
COc1ccccc1CNC1=Nc2ccncc2S(=O)(=O)N1c1ccccc1 | > 100 µM (inactive) | > 100 µM (inactive) | 63.4 µM (inactive) | 97.5 µM (inactive) | > 100 µM (inactive) | > 100 µM (inactive) | > 100 µM (inactive) | 56.6 µM (inactive) | 57.5 µM (inactive) | > 100 µM (inactive) | > 100 µM (inactive) | 41.1 µM (inactive) | > 100 µM (inactive) | > 100 µM (inactive) | – | > 100 µM (inactive) | > 100 µM (inactive) | 45.8 µM (inactive) | –
O=C(/C=C1\NC(=O)c2ccccc2N1)c1ccncc1 | > 100 µM (inactive) | > 100 µM (inactive) | > 100 µM (inactive) | – | > 100 µM (inactive) | > 100 µM (inactive) | > 100 µM (inactive) | – | – | > 100 µM (inactive) | > 100 µM (inactive) | > 100 µM (inactive) | > 100 µM (inactive) | > 100 µM (inactive) | – | > 100 µM (inactive) | > 100 µM (inactive) | > 100 µM (inactive) | –
O=c1c2cc(Cl)ccc2sc2cccc(Cl)c12 | > 100 µM (inactive) | > 100 µM (inactive) | > 100 µM (inactive) | – | > 100 µM (inactive) | – | > 100 µM (inactive) | > 100 µM (inactive) | – | > 100 µM (inactive) | > 100 µM (inactive) | > 100 µM (inactive) | > 100 µM (inactive) | > 100 µM (inactive) | – | > 100 µM (inactive) | > 100 µM (inactive) | > 100 µM (inactive) | –
c1ccc2c3c([nH]c2c1)C1C2CCCCN2C(c2ccncc2)N1CC3 (stereo not given) | 63.4 µM (inactive) | 46.1 µM (inactive) | 35 µM (inactive) | – | 54.3 µM (inactive) | – | – | 35.9 µM (inactive) | – | 44.1 µM (inactive) | 61.5 µM (inactive) | 38.9 µM (inactive) | 39.9 µM (inactive) | 33.5 µM (inactive) | – | – | 11.5 µM (inactive) | – | –
CC(C)C1=CC23CCC4C(C)(C(=O)O)CCCC4(C)C2CC1C(C(=O)O)C3C(=O)O (stereo not given) | > 100 µM (inactive) | > 100 µM (inactive) | – | > 100 µM (inactive) | > 100 µM (inactive) | – | > 100 µM (inactive) | > 100 µM (inactive) | > 100 µM (inactive) | > 100 µM (inactive) | > 100 µM (inactive) | > 100 µM (inactive) | > 100 µM (inactive) | > 100 µM (inactive) | > 100 µM (inactive) | > 100 µM (inactive) | > 100 µM (inactive) | > 100 µM (inactive) | –
COC(=O)CC(C(C(=O)OC)C(=O)OC)N1C(=O)OCC1c1ccccc1 (stereo not given) | > 100 µM (inactive) | > 100 µM (inactive) | > 100 µM (inactive) | – | > 100 µM (inactive) | 28.5 µM (inactive) | > 100 µM (inactive) | > 100 µM (inactive) | – | > 100 µM (inactive) | > 100 µM (inactive) | > 100 µM (inactive) | > 100 µM (inactive) | 43.5 µM (inactive) | – | > 100 µM (inactive) | > 100 µM (inactive) | > 100 µM (inactive) | –
COC(=O)NCCc1n[nH]c2c1C(=O)C=C(OC)C2=O | 19.5 µM (inactive) | 19.1 µM (inactive) | 24.8 µM (inactive) | 52.6 µM (inactive) | 22.9 µM (inactive) | > 100 µM (inactive) | 19.9 µM (inactive) | 20.9 µM (inactive) | > 100 µM (inactive) | 17.9 µM (inactive) | 19.6 µM (inactive) | 18.2 µM (inactive) | 20.1 µM (inactive) | 22.6 µM (inactive) | – | 43.9 µM (inactive) | 24.3 µM (inactive) | – | 17.9 µM (inactive)
